Experimental data: the supplement of paper PMC10307832

How the values were obtained:
Assay in all cases: relative viability (nuclei count vs DMSO), 5 days (fraction); higher = more cells survive
AZ3146 + Palbociclib = compound: CN1CCC(CC1)OC2=CC(=C(C=C2)NC3=NC=C4C(=N3)N(C(=O)N4C)C5CCCC5)OC [AZ3146] + CC(=O)c1c(C)c2cnc(Nc3ccc(N4CCNCC4)cn3)nc2n(C2CCCC2)c1=O [Palbociclib] (partner 0.5 µM)
In short: (§1)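 Lung cancer cell lines were pin-tool dosed in 1536-well plates on the day after seeding, with either a lone drug or a fixed anchor-drug dose plus five library-drug doses (not always all listed) in √10 steps. Nuclei were counted on 4× images after 5 days. Relative viability is the ratio of treated-well to vehicle-well nuclei counts, with each value a median of duplicate plates.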

AZ3146 + Decitabine = compound: CN1CCC(CC1)OC2=CC(=C(C=C2)NC3=NC=C4C(=N3)N(C(=O)N4C)C5CCCC5)OC [AZ3146] + Nc1ncn([C@H]2C[C@H](O)[C@@H](CO)O2)c(=O)n1 [Decitabine] (partner 2 µM)
In short: as §1

GSK-J4 + Crizotinib = compound: CCOC(=O)CCNc1cc(N2CCc3ccccc3CC2)nc(-c2ccccn2)n1 [GSK-J4] + C[C@@H](Oc1cc(-c2cnn(C3CCNCC3)c2)cnc1N)c1c(Cl)ccc(F)c1Cl [Crizotinib] (partner 1 µM)
In short: as §1

GSK-J4 + Linsitinib = compound: CCOC(=O)CCNc1cc(N2CCc3ccccc3CC2)nc(-c2ccccn2)n1 [GSK-J4] + C[C@]1(O)C[C@@H](c2nc(-c3ccc4ccc(-c5ccccc5)nc4c3)c3c(N)nccn32)C1 [Linsitinib] (partner 1 µM)
In short: as §1

Cell Line | relative viability (AZ3146 + Palbociclib; first compound 0.08 µM) | relative viability (AZ3146 + Palbociclib; first compound 0.253 µM) | relative viability (AZ3146 + Palbociclib; first compound 0.8 µM) | relative viability (AZ3146 + Palbociclib; first compound 2.53 µM) | relative viability (AZ3146 + Palbociclib; first compound 8 µM) | relative viability (AZ3146 + Decitabine; first compound 0.08 µM) | relative viability (AZ3146 + Decitabine; first compound 0.253 µM) | relative viability (AZ3146 + Decitabine; first compound 0.8 µM) | relative viability (AZ3146 + Decitabine; first compound 2.53 µM) | relative viability (AZ3146 + Decitabine; first compound 8 µM) | relative viability (GSK-J4 + Crizotinib; first compound 0.5 µM) | relative viability (GSK-J4 + Crizotinib; first compound 1.581 µM) | relative viability (GSK-J4 + Crizotinib; first compound 5 µM) | relative viability (GSK-J4 + Crizotinib; first compound 15.81 µM) | relative viability (GSK-J4 + Crizotinib; first compound 50 µM) | relative viability (GSK-J4 + Linsitinib; first compound 0.5 µM) | relative viability (GSK-J4 + Linsitinib; first compound 1.581 µM) | relative viability (GSK-J4 + Linsitinib; first compound 5 µM) | relative viability (GSK-J4 + Linsitinib; first compound 15.81 µM) | relative viability (GSK-J4 + Linsitinib; first compound 50 µM)
NCI-H522 | 1.15 | 0.902 | 1.14 | 0.894 | 1.1 | 0.732 | 0.589 | 0.683 | 0.616 | 0.714 | – | – | – | – | – | – | – | – | – | –
NCI-H596 | – | – | – | – | – | 0.91 | 0.92 | 1.2 | 1.3 | 1.03 | 1.11 | 1.04 | 0.932 | 0.949 | 0.992 | 1 | 1.08 | 1.07 | 0.938 | 1.02
NCI-H1299 | – | – | – | – | – | – | – | – | – | – | 0.984 | 0.91 | 0.873 | 0.937 | 0.923 | 0.979 | 0.881 | 0.813 | 0.962 | 0.988
NCI-H1395 | 0.619 | 0.603 | – | 0.619 | 0.647 | 0.642 | 0.746 | – | 0.864 | 0.849 | – | – | – | – | – | 1.06 | 1.22 | 0.877 | 0.813 | 0.745
NCI-H1563 | – | – | – | – | – | – | – | – | – | – | 0.888 | 0.779 | 0.684 | 0.837 | 0.857 | 1.15 | 1.2 | 1.22 | 1.18 | 1.24
NCI-H1648 | – | – | 0.27 | 0.298 | 0.232 | – | – | 0.514 | 0.562 | 0.429 | – | – | – | – | – | – | – | – | – | –
NCI-H1650 | 0.301 | 0.343 | 0.366 | 0.352 | 0.283 | 0.377 | 0.44 | 0.366 | 0.44 | 0.367 | 0.847 | 0.962 | 0.862 | 0.935 | 0.721 | – | – | – | – | –
NCI-H1703 | – | – | – | – | – | – | – | – | – | – | 0.736 | 0.748 | 0.431 | 0.616 | 0.662 | 0.636 | 0.276 | 0.336 | 0.364 | 0.761
NCI-H1793 | 0.269 | 0.292 | 0.311 | 0.374 | 0.321 | 0.252 | 0.523 | 0.456 | 0.283 | 0.488 | – | – | – | – | – | 0.973 | 0.71 | 0.94 | 0.594 | 0.493
NCI-H2170 | 0.341 | 0.361 | 0.394 | 0.398 | 0.377 | 0.441 | 0.477 | 0.461 | 0.421 | 0.466 | 1.09 | 1.14 | 1.19 | 1.09 | 1.11 | – | – | – | – | –
NCI-H2228 | 0.671 | 0.878 | 0.728 | 0.622 | 0.59 | – | – | – | – | – | 0.609 | 0.345 | 0.497 | 0.535 | 0.423 | 0.483 | 0.721 | 0.748 | 0.746 | 1.04
NCI-H2342 | 0.527 | 0.502 | 0.582 | 0.565 | 0.501 | 0.653 | 0.681 | 0.756 | 0.683 | 0.714 | – | – | – | – | – | – | – | – | – | –
SW 900 | 0.447 | – | 0.502 | 0.489 | 0.589 | 0.389 | – | 0.442 | 0.451 | 0.558 | – | – | – | – | – | – | – | – | – | –
